From ChEMBL document CHEMBL1142842, “Trifluoromethylation of flavonoids and anti-tumor activity of the trifluoromethylated flavonoid derivatives” (2005)

How the values were obtained:
U2OS [1] = test: In vitro effect on the S phase of cell cycle of U2OS cells upon incubation at 37 degree for 24 hours in FCM assay at concentration of 500 nM; type: functional, Homo sapiens
U2OS [2] = test: In vitro effect on the G2/M phase of cell cycle of U2OS cells upon incubation at 37 degree for 24 hours in FCM assay at concentration of 500 nM; type: functional, Homo sapiens
U2OS [3] = test: In vitro effect on the G1 phase of cell cycle of U2OS cells upon incubation at 37 degree for 24 hours in FCM assay at concentration of 500 nM; type: functional, Homo sapiens
U2OS [4] = test: In vitro effect on the S phase of cell cycle of U2OS cells upon incubation at 37 degree for 24 hours in FCM assay; all the cell died at tested concentration (500 nM); type: functional, cell-based; settings: Homo sapiens
U2OS [5] = test: In vitro effect on the G2/M phase of cell cycle of U2OS cells upon incubation at 37 degree for 24 hours in FCM assay; all the cell died at tested concentration (500 nM); type: functional, cell-based; settings: Homo sapiens
U2OS [6] = test: In vitro effect on the G1 phase of cell cycle of U2OS cells upon incubation at 37 degree for 24 hours in FCM assay; all the cell died at tested concentration (500 nM); type: functional, cell-based; settings: Homo sapiens

Row | Structure (SMILES) | Content of cell cycle (U2OS [1]) | Content of cell cycle (U2OS [2]) | Content of cell cycle (U2OS [3]) | further results
1 | COc1cc(OC)c2c(=O)cc(-c3cc(C(F)(F)F)c(OC)c(C(F)(F)F)c3)oc2c1 | 44.92% | 0% | 55.08% | 
2 | COc1cc(OC)c2c(c1)OC(c1ccccc1)=CC2(O)C(F)(F)F (stereo not given) |  |  |  | Activity (U2OS [4]): all the cells died at tested concentration (500 nM); Activity (U2OS [5]): all the cells died at tested concentration (500 nM); Activity (U2OS [6]): all the cells died at tested concentration (500 nM)
3 | COc1cc(OC)c2c(=O)c(C(F)(F)F)c(-c3ccccc3)oc2c1 | 31.95% | 14.99% | 53.06% | 
4 | COc1ccc(-c2oc3cc(OC)cc(OC)c3c(=O)c2C(F)(F)F)cc1 | 49.24% | 6.67% | 44.09% | 
5 | COc1ccc(-c2c(C(F)(F)F)oc3cc(OC)cc(OC)c3c2=O)cc1 |  |  |  | Activity (U2OS [1]): 48.02%; Activity (U2OS [2]): 5.29%; Activity (U2OS [3]): 46.69%
